Laboratory results taken from patent USRE37534E1, “Pharmaceutical compositions” (BTG International Limited, priority 1982, dated 2002).

Experiments:
[1] = In vivo 59Fe blood kinetics and tissue distribution in the cat, intravenous; settings: for Net ^59Fe content (cpm/g) / Net total ^59Fe content (cpm): 2 μCi given, figures adjusted to 2.2×10^6 cpm
Method: Body temperature was monitored with a rectal thermometer.
The iron maltol complex (100 μg Fe) alone (3:1 molar ratio of maltol:iron) and together with a large excess of maltol (40:1 molar ratio of maltol:iron) was injected intravenously in separate experiments and 0.25 ml samples of blood were taken in intervals. The apparent volume of distribution of the compound was calculated by extrapolation of the log-linear blood concentration curve to zero.
The amount of ^59Fe administration in this experiment was 4 μCi or 2.2×10^6 cpm.

[2] = in vivo
From the text: (§3) In each animal the trachea was cannulated to maintain a clear airway and to allow positive pressure artificial respiration if necessary. The left femoral vien was cannulated for the intravenous administration of drugs and physiological saline solution. Arterial blood pressure was monitored by a Washington pressure transducer through a cannula inserted into the femoral artery of the right hind leg. Arterial blood samples were taken at appropriate intervals from a short cannula inserted into an external carotid artery. Body temperature was monitored with a rectal thermometer. Each animal was given heparin (1000 iu/kg) as anticoagulant and additional small amounts of pentobarbitone sodium if needed to maintain a satisfactory level of anaesthesia.
(§4) If those animals where the iron compounds were to be administered into the duodenum, a mid-line incision was made in the abdomen to reveal the intestines. A cannula was then inserted through a small cut such that its tip rested approximately 5 cm below the opening of the bile duct. The cannula was then sutured in place and the abdominal wall closed with stitches.
(§5) The iron maltol complex (100 μg Fe) was also administered to the duodenum of the cat in the presence of a 40 fold excess of maltol followed by 5 ml of 150 ml tris hydrochloride buffer (pH 7.4).

[3] = In vivo 59Fe uptake after administration into the duodenum of the rat; settings: 100 μg Fe into duodenum; for introduction of iron via the rat intestine (59Fe in organs), comparison: 1-6 hours, FIGS. 1-4
Method: Groups of rats (300-350 g) were anaesthetised with nembutal (0.25 ml) and then with ether. […] The abdominal well was then closed with a suture. […] In the case of the data for blood and sternum (bone marrow) the counts given are cpm/ml and cpm/g respectively, whilst in all other cases they are the total cpm counts.

[4] = In vivo 59Fe blood level and tissue distribution in the cat, per duodenum; settings: 2.65×10^6 cpm administered
From the text: as §3, §4, §5

rat jejunal sac = assay: Permeation of everted rat jejunal sac by iron complexes; type: in vitro ADME; settings: for Relative iron uptake, 15 minutes / Relative iron uptake, 60 minutes: relative to ferric chloride as 1
From the text: Rats (male Sprague Dawley, 60 g) were killed and the jejunum removed, everted and cut into three segments (4 cm length). […] The contents of the sac were counted for ^59Fe and measured spectrophotometrically. […] The procedure described above was used to compare the uptake of iron from buffer containing differing molar proportions of maltol:iron.

human erythrocytes = assay: Permeation of iron complexes into human erythrocytes (59Fe distribution ratio); type: cell-based; settings: 37° C.; for Distribution ratio (concentration in erythrocytes/concentration in medium): 1 hour, pH 7.4
Method: Following this period of incubation an aliquot of the erythrocyte/medium mixture was placed above a layer of silicone oil (ρ=1.06) and the erythrocytes separated by centrifugation through the oil. The ^59Fe levels associated with the erythrocytes and the incubation medium were then counted and presented as a distribution ratio (concentration in erythrocytes/concentration in medium).

[5] = Iron take-up in human subjects by whole body counting; type: in vivo; settings: for level of take-up of iron by whole body counting: normal subject
Method: Capsules containing 3:1 iron(III) maltol, […] were prepared according to the procedure of Example 7^(1) with the modification that at 3:1 molar ratio of maltol:iron was used (no free maltol therefore being present in the capsules) and that a proportion of the ferric chloride used in the preparation of the iron maltol was radiolabelled as ^59Fe. The capsules each contained 10 mg of iron, this amount being labelled with 1 microcurie of ^59Fe, and were subjected to a single coating procedure.
The test involved two normal subjects, i.e. not suffering from iron deficiency, one of whom took a 10 mg dose of iron (one capsule) and the other whom took a 20 mg does of iron (two capsules). The capsule or capsules were taken after fasting overnight and fasting was then continued for a further 2 hours. The take-up of iron by the subjects was followed by means of whole body counting, using a calibrated body counter, reading being taken 4 to 8 hours after ingestion of the capsules to establish a base level and then after 7 and 14 days. Excretion of iron by the subjects was followed through the counting, in a large volume counter calibrated for iron, of daily urine samples over 3 days and daily stool samples over 10 days.

[6] = Affinity / stability constant of ligand for iron(III); type: physicochemical
From the text: (§1) In order to solubilise iron(III) hydroxide, log Ksol must be greater than 0. The value of Ksol for maltol is 0.8 and this is also sufficiently large to prevent appreciable competition from phytate, phosphate, thiols and other potential ligands likely to occur in the intestinal lumen.

[7] = molecular target: bovine serum albmen (BSA) (Bos taurus, UniProt P02769); assay: Binding of complex to BSA (gel permeation column); settings: as haemoglobin procedure, pH 7.4
Method: (§2) The ability of the iron complex of maltol to bind to haemoglobin is investigated by studying the elution profile of a ^59Fe label when a mixture of haemoglobin and the ^59Fe-labeled complex (at 1 mM concentration) in NaCl (130 mM) buffered to pH 7.4 by Tris hydrochloride is applied to a PH-10 column (Sephadex G-10 gel permeation column—Pharmacia).
The ability of the iron complex of maltol to bind to bovine serum albmen (BSA) is investigated through a similar procedure in which the complex is applied to a column with BSA rather than haemoglobin.

haemoglobin = haemoglobin (Homo sapiens, UniProt P68871+P69905); assay: Binding of 59Fe-labelled complex to haemoglobin (gel permeation column); settings: 59Fe-labelled complex 1 mM, NaCl 130 mM, pH 7.4
Method: as §2

[8] = Ksol (ability to solubilise iron(III) hydroxide); type: physicochemical
From the text: as §1

[9] = Partition coefficient Kpart n-octanol / Tris hydrochloride; type: physicochemical; settings: pH 7.4
Method: An indication of the properties of a compound in this respect is provided by the value of the partition coefficient (Kpart) obtained on partition between n-octanol and Tris hydrochloride (20 mM, pH 7.4; Tris representing 2-amino-2-hydroxymethylpropane 1,3-diol) at 20° C. and expressed as the ratio (concentration of compound in organic phase)/(concentration of compound in aqueous phase).
The partition coefficient Kpart (concentration in n-octanol/concentration in aqueous phase) between n-octanol and Tris hydrochloride (20 mM, pH 7.4) of maltol and of its 3:1 iron complex is measured at 10^−4 M by spectrophotometry. Acid washed glassware is used throughout and, following mixing for 1 minute, the aqueous/n-octanol mixture is […] at 1000 g for 30 seconds. The two resulting phases are separated for a concentration determination by spectrophotometry on each. For maltol, the range 220-340 nm is used for the concentration determination whilst for the complex the range 340-640 nm is used.

Sequence of bovine serum albmen (BSA) (P02769 25-607): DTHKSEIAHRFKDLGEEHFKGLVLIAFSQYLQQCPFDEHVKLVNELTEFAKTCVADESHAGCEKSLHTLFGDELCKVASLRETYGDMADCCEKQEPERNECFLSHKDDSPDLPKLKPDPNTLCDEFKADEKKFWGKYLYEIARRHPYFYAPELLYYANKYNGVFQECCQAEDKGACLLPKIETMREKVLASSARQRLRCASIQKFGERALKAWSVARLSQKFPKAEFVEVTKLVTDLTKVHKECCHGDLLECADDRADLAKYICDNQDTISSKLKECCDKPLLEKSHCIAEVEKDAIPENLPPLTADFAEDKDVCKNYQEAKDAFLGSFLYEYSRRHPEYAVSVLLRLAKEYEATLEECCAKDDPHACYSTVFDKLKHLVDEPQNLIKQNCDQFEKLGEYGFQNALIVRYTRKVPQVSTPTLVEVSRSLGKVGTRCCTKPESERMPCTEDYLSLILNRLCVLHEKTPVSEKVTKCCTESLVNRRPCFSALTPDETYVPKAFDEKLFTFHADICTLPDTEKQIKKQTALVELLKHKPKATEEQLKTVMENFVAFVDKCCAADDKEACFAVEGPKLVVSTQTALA
Sequence of haemoglobin (P69905 2-142 limits assumed): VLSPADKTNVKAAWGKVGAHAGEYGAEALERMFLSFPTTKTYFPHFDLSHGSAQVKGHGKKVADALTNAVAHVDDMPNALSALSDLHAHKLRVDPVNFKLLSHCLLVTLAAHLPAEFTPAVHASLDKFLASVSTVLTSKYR
Sequence of haemoglobin (P68871 2-147 limits assumed): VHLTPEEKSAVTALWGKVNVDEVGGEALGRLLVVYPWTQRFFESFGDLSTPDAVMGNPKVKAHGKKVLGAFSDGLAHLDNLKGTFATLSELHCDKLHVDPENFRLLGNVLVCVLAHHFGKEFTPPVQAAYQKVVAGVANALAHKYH

Compound: O=C([O-])CN(CCN(CC(=O)[O-])CC(=O)O)CC(=O)[O-].[Fe+3] [Fe^III EDTA]
- Net ^59Fe content (cpm/g) ([1]; Heart, i.v.): 209 cpm/g
- Net total ^59Fe content (cpm) ([1]; Heart, i.v.): 3,248 cpm
- Net ^59Fe content (cpm/g) ([1]; Kidney, i.v.): 1,134 cpm/g
- Net total ^59Fe content (cpm) ([1]; Kidney, i.v.): 21,770 cpm
- Net ^59Fe content (cpm/g) ([1]; Liver, i.v.): 261 cpm/g
- Net total ^59Fe content (cpm) ([1]; Liver, i.v.): 19,600 cpm
- Net ^59Fe content (cpm/g) ([1]; Skeletal muscle, i.v.): 95 cpm/g
- Net ^59Fe content (cpm/g) ([1]; Spleen, i.v.): 162 cpm/g
- Net total ^59Fe content (cpm) ([1]; Spleen, i.v.): 1,814 cpm
- Net ^59Fe content (cpm/g) ([1]; Sternum (bone marrow), i.v.): 1,164 cpm/g
- Net total ^59Fe content (cpm) ([1]; Urine (19 ml), i.v.): 1,180,900 cpm
- Net ^59Fe content (cpm/g) ([1]; Urine (19 ml, 2 ml sample), i.v.): 62,156 cpm/g
- rate constant of the elimination from the blood, linear phase of the regression ([1]; i.v.): 0.023 min⁻¹
- dose located in the urine ([1]; i.v., end of experiment): over 50%
- plasma levels of radioactivity [2]: hardly exceeded the background level
- levels of 59Fe in the intestine wall and blood ([3]; FIG. 3): extremely low
- Net ^59Fe content (cpm/g) ([4]; Heart): 188 cpm/g
- Net total ^59Fe content (cpm) ([4]; Heart): 2,878 cpm
- Net ^59Fe content (cpm/g) ([4]; Kidney): 1,762 cpm/g
- Net total ^59Fe content (cpm) ([4]; Kidney): 19,913 cpm
- Net ^59Fe content (cpm/g) ([4]; Liver): 499 cpm/g
- Net total ^59Fe content (cpm) ([4]; Liver): 29,574 cpm
- Net ^59Fe content (cpm/g) ([4]; Skeletal muscle): 117 cpm/g
- Net ^59Fe content (cpm/g) ([4]; Spleen): 200 cpm/g
- Net total ^59Fe content (cpm) ([4]; Spleen): 880 cpm
- Net ^59Fe content (cpm/g) ([4]; Sternum (bone marrow)): 917 cpm/g
- Net ^59Fe content (cpm/g) ([4]; Urine (5 ml sample)): 36,306 cpm/g
- Net total ^59Fe content (cpm) ([4]; Urine (15 ml)): 544,596 cpm

Compound: [Cl][Fe]([Cl])[Cl] [FeCl3]
- Relative iron uptake, 15 minutes (rat jejunal sac): 1
- Relative iron uptake, 60 minutes (rat jejunal sac): 1

Compound: Fe^III ascorbate
- Relative iron uptake, 15 minutes (rat jejunal sac): 0.4
- Relative iron uptake, 60 minutes (rat jejunal sac): 0.8
- Distribution ratio (concentration in erythrocytes/concentration in medium) (human erythrocytes; 1 mM): 0.12

Compound: Fe^III citrate
- Relative iron uptake, 15 minutes (rat jejunal sac): 2.0
- Relative iron uptake, 60 minutes (rat jejunal sac): 1.8
- Distribution ratio (concentration in erythrocytes/concentration in medium) (human erythrocytes; 1 mM): 0.05

Compound: O=S(=O)([O-])[O-].[Fe+2] [Fe^II sulphate]
- level of take-up of iron by whole body counting ([5]; 10 mg dose, at 7 days): 13%
- level of take-up of iron by whole body counting ([5]; 20 mg dose, at 7 days): 6%
- Relative iron uptake, 15 minutes (rat jejunal sac): 2.4
- Relative iron uptake, 60 minutes (rat jejunal sac): 1.4

Compound: Cc1occc(=O)c1[O-].Cc1occc(=O)c1[O-].Cc1occc(=O)c1[O-].[Fe+3] [Fe^III (maltol)3]
- thermodynamic stability constant ([6]; 3:1 complex): 30
- ability to bind to BSA [7]: little ability to bind to BSA
- binding of the complex to haemoglobin (haemoglobin): no evidence if found for binding
- 59Fe directed to the bone marrow (bulk, inferred) ([1]; in vivo, iv): approximately 90%
- dose located in combined tissue of heart, liver and spleen ([1]; in vivo, iv): approximately 10%
- dose located in the urine ([1]; in vivo, iv): less than 0.2%
- loss of iron in the urine ([5]; daily urine samples over 3 days): essentially zero loss of iron
- level of take-up of iron by whole body counting ([5]; 10 mg dose of iron, oral capsule, 14 day figure): 19%
- level of take-up of iron by whole body counting ([5]; 20 mg dose of iron, oral capsules, 14 day figure): 11%
- concentration dependence of uptake (rat jejunal sac; 0.5 to 10 mM, uptake increased linearly): does not show saturation kinetics
- Iron uptake (n mole) (rat jejunal sac; iron transferred into serosal contents of sac, basal uptake subtracted, by maltol/iron molar ratio): 30.0 n mole
- time course of uptake (rat jejunal sac; jejunal sac, up to 90 minutes): linear for a period 90 minutes
- Relative iron uptake, 15 minutes (rat jejunal sac): 40
- Relative iron uptake, 60 minutes (rat jejunal sac): 5.8
- introduction of iron via the rat intestine (59Fe in organs), comparison ([3]; listed as maltol complex): more efficient than iron(III) EDTA
- introduction of iron via the rat intestine (59Fe in organs), comparison ([3]; listed as neutral 3:1 maltol:iron(III) complex): markedly superior to iron(II) sulphate
- Distribution ratio (concentration in erythrocytes/concentration in medium) (human erythrocytes; 3 mM): 1.60
- time for uptake to reach equilibrium (human erythrocytes; erythrocytes): about 15 minutes

Compound: O=C([O-])/C=C/C(=O)[O-].[Fe+2] [Fe^II fumarate]
- Relative iron uptake, 15 minutes (rat jejunal sac): 4.0
- Relative iron uptake, 60 minutes (rat jejunal sac): 1.8

Compound: O=C([O-])[C@H](O)[C@@H](O)[C@H](O)[C@H](O)CO.O=C([O-])[C@H](O)[C@@H](O)[C@H](O)[C@H](O)CO.[Fe+2] [Fe^II gluconate]
- Relative iron uptake, 15 minutes (rat jejunal sac): 1.6
- Relative iron uptake, 60 minutes (rat jejunal sac): 0.8
- introduction of iron via the rat intestine (59Fe in organs), comparison [3]: more effective than the sulphate or the EDTA complex
- Distribution ratio (concentration in erythrocytes/concentration in medium) (human erythrocytes; 1 mM): 0.08

Compound: O=C([O-])CCC(=O)[O-].[Fe+2] [Fe^II succinate]
- Relative iron uptake, 15 minutes (rat jejunal sac): 2.0
- Relative iron uptake, 60 minutes (rat jejunal sac): 1.0

Compound: apotransferrin: iron-free transferrin, reference for log Ksol
- log Ksol [8]: 6.0

Compound: Cc1occc(=O)c1O [maltol, 3-hydroxy-2-methyl-4-pyrone]
- log β3 (affinity for iron) ([6]; ligand maltol, iron): 30
- Ksol ([8]; ligand, log Ksol must be greater than 0 to solubilise iron(III) hydroxide): 0.8
- logD [9]: -0.18
